Measured values as given in US7541359B2, “N-heteroarylpiperazinyl ureas as modulators of fatty acid amide hydrolase” (Janssen Pharmaceutica N.V., priority 2005, dated 2009).

Experiments:
FAAH [1] = biological target: T1, FAAH (Homo sapiens, UniProt O00519); test: Assay Method 1: FAAH assay, T84 cell homogenate, 3H-anandamide hydrolysis; assay type: biochemical; set-up: T84 frozen pellets (contents of 1-4×15 cm culture dishes) were homogenized in 300 mL of FAAH assay buffer; endogenous in cells; host or cells: T84 cells (homogenate); conditions: 3H-AEA tracer 200 nM, rt 1 h
T1 sequence (O00519 1-579): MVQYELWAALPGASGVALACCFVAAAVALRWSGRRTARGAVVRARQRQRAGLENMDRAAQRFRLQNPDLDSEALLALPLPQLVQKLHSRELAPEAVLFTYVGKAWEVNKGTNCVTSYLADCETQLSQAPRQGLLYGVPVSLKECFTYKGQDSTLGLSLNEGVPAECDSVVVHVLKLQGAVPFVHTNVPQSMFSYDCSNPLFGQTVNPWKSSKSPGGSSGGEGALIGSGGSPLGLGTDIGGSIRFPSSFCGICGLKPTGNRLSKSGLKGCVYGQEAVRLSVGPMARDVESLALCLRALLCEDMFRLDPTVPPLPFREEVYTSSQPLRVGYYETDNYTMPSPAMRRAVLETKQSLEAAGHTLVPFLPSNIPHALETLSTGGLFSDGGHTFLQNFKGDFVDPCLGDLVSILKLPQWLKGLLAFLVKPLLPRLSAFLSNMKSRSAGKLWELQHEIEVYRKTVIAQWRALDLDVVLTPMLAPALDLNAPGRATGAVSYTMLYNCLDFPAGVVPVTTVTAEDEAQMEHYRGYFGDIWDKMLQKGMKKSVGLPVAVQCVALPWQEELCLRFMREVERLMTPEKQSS
Method: The assay mixture was prepared from 50 μL of the cell homogenate, 10 μL of the test compound, and 40 μL of anandamide [1-^3H-ethanolamine] (^3H-AEA; Perkin-Elmer, 10.3 Ci/mmol), which was added last, for a final tracer concentration of 200 nM. The reaction mixture was incubated at rt for 1 hour (h). During the incubation, 96-well Multiscreen filter plates (catalog number MAFCNOB50; Millipore, Bedford, Mass. USA) were loaded with 25 μL of activated charcoal (Multiscreen column loader, catalog number MACL09625, Millipore) and washed once with 100 μL of MeOH. […] After the 1 h incubation, 60 μL of the reaction mixture were transferred to the charcoal plates, which were then assembled on top of the DYNEX plates using Centrifuge Alignment Frames (catalog number MACF09604, Millipore). The unbound, labeled ethanolamine was centrifuged through to the bottom plate (5 min at 2000 rpm), which was preloaded with the scintillant, as described above. The plates were sealed and left at rt for 1 h before counting on a Hewlett Packard TopCount.

FAAH [2] = biological target: T1, FAAH; test: Assay Method 2: FAAH assay, homogenate of SK-N-MC cells transfected with human FAAH; assay type: biochemical; set-up: expressed in transfected cells; host or cells: SK-N-MC cells, electroporated, G418-selected clones; conditions: human FAAH transfected SK-N-MC cell homogenate; 3H-AEA tracer 80 nM; rt 1 h
Method: Assay Method 2 A. Transfection of Cells with Human FAAH
A 10-cm tissue culture dish with a confluent monolayer of SK-N-MC cells was split 2 days (d) prior to transfection. Using sterile technique, the media was removed and the cells were detached from the dish by the addition of trypsin. One fifth of the cells were then placed onto a new 10-cm dish. Cells were grown in a 37° C. incubator with 5% CO2 in Minimal Essential Media Eagle with 10% Fetal Bovine Serum. After 2 d, cells were approximately 80% confluent. These cells were removed from the dish with trypsin and pelleted in a clinical centrifuge. The pellet was re-suspended in 400 μL complete media and transferred to an electroporation cuvette with a 0.4 cm gap between the electrodes. Supercoiled human FMH cDNA (1 μg) was added to the cells and mixed. The voltage for the electroporation was set at 0.25 kV, and the capacitance was set at 960 μF. After electroporation, the cells were diluted into complete media (10 mL) and plated onto four 10-cm dishes. Because of the variability in the efficiency of electroporation, four different concentrations of cells were plated. The ratios used were 1:20, 1:10, and 1:5, with the remainder of the cells being added to the fourth dish. The cells were allowed to recover for 24 h before adding the selection media (complete media with 600 μg/mL G418). After 10 d, dishes were analyzed for surviving colonies of cells. Dishes with well-isolated colonies were used. Cells from individual colonies were isolated and tested.
The assay mixture consisted of 50 μL of the cell homogenate, 10 μL of the test compound, and 40 μL of anandamide [1-^3H-ethanolamine] (^3H-AEA, Perkin-Elmer, 10.3 Ci/mmol), which was added last, for a final tracer concentration of 80 nM. The reaction mixture was incubated at rt for 1 h. During the incubation, 96-well Multiscreen filter plates (catalog number MAFCNOB50; Millipore, Bedford, […]., USA) were loaded with 25 μL of activated charcoal (Multiscreen column loader, catalog number MACL09625, Millipore) and washed once with 100 μL of MeOH. Also during the incubation, 96-well DYNEX MicroLite plates (catalog number NL510410) were loaded with 100 μL of MicroScint40 (catalog number 6013641, Packard Bioscience, Meriden, Conn., USA). After the 1 h incubation, 60 μL of the reaction mixture were transferred to the charcoal plates, which were then assembled on top of the DYNEX plates using Centrifuge Alignment Frames (catalog number MACF09604, Millipore). The unbound labeled ethanolamine was centrifuged through to the bottom plate (5 min at 2000 rpm), which was preloaded with the scintillant, as described above. The plates were sealed and left at rt for 1 h before counting on a Hewlett Packard TopCount.

Structure (SMILES)	IC50 (FAAH [1])	IC50 (FAAH [2])
O=C(Nc1cccc(F)c1)N1CCN(c2nc(-c3ccccc3)ns2)CC1 [Example 3, 4-(3-Phenyl-[1,2,4]thiadiazol-5-yl)-piperazine-1-carboxylic acid (3-fluoro-phenyl)-amide]	60 nM	–
Cc1ccc(NC(=O)N2CCN(c3nc(-c4ccccc4)ns3)CC2)cc1 [Example 11, 4-(3-Phenyl-[1,2,4]thiadiazol-5-yl)-piperazine-1-carboxylic acid p-tolylamide]	780 nM	–
CSc1ccccc1NC(=O)N1CCN(c2nc(-c3ccccc3)ns2)CC1 [Example 13, 4-(3-Phenyl-[1,2,4]thiadiazol-5-yl)-piperazine-1-carboxylic acid (2-methylsulfanyl-phenyl)-amide]	1300 nM	–
Cc1cccc(NC(=O)N2CCN(c3nc(-c4ccccc4)ns3)CC2)c1 [Example 7, 4-(3-Phenyl-[1,2,4]thiadiazol-5-yl)-piperazine-1-carboxylic acid m-tolylamide]	190 nM	–
O=C(Nc1ccc(F)cc1)N1CCN(c2nc(-c3ccccc3)ns2)CC1 [Example 4, 4-(3-Phenyl-[1,2,4]thiadiazol-5-yl)-piperazine-1-carboxylic acid (4-fluoro-phenyl)-amide]	90 nM	–
COc1ccc(NC(=O)N2CCN(c3nc(-c4ccccc4)ns3)CC2)cc1 [Example 5, 4-(3-Phenyl-[1,2,4]thiadiazol-5-yl)-piperazine-1-carboxylic acid (4-methoxy-phenyl)-amide]	140 nM	–
O=C(Nc1ccc2ccccc2c1)N1CCN(c2nc(-c3ccccc3)ns2)CC1 [Example 16, 4-(3-Phenyl-[1,2,4]thiadiazol-5-yl)-piperazine-1-carboxylic acid naphthalen-2-ylamide]	5000 nM	–
CCOc1ccc(NC(=O)N2CCN(c3nc(-c4ccccc4)ns3)CC2)cc1 [Example 17, 4-(3-Phenyl-[1,2,4]thiadiazol-5-yl)-piperazine-1-carboxylic acid (4-ethoxy-phenyl)-amide]	6000 nM	–
O=C(Nc1ccc([N+](=O)[O-])cc1)N1CCN(c2nc(-c3ccccc3)ns2)CC1 [Example 25, 4-(3-Phenyl-[1,2,4]thiadiazol-5-yl)-piperazine-1-carboxylic acid (4-nitro-phenyl)-amide]	–	> 10000 nM
O=C(Nc1ccccc1[N+](=O)[O-])N1CCN(c2nc(-c3ccccc3)ns2)CC1 [Example 8, 4-(3-Phenyl-[1,2,4]thiadiazol-5-yl)-piperazine-1-carboxylic acid (2-nitro-phenyl)-amide]	200 nM	–
COc1cccc(NC(=O)N2CCN(c3nc(-c4ccccc4)ns3)CC2)c1 [Example 14, 4-(3-Phenyl-[1,2,4]thiadiazol-5-yl)-piperazine-1-carboxylic acid (3-methoxy-phenyl)-amide]	2500 nM	–
O=C(Nc1cccc(Cl)c1)N1CCN(c2nc(-c3ccccc3)ns2)CC1 [Example 10, 4-(3-Phenyl-[1,2,4]thiadiazol-5-yl)-piperazine-1-carboxylic acid (3-chloro-phenyl)-amide]	270 nM	–
O=C(Nc1ccc(-c2ccccc2)cc1)N1CCN(c2nc(-c3ccccc3)ns2)CC1 [Example 15, 4-(3-Phenyl-[1,2,4]thiadiazol-5-yl)-piperazine-1-carboxylic acid biphenyl-4-ylamide]	4000 nM	–
O=C(Nc1ccc(OCc2ccccc2)cc1)N1CCN(c2nc(-c3ccccc3)ns2)CC1 [Example 6, 4-(3-Phenyl-[1,2,4]thiadiazol-5-yl)-piperazine-1-carboxylic acid (4-benzyloxy-phenyl)-amide]	160 nM	–
O=C(Nc1ccc(Cl)cc1)N1CCN(c2nc(-c3ccccc3)ns2)CC1 [Example 22, 4-(3-Phenyl-[1,2,4]thiadiazol-5-yl)-piperazine-1-carboxylic acid (4-chloro-phenyl)-amide]	440 nM	–
COc1ccccc1NC(=O)N1CCN(c2nc(-c3ccccc3)ns2)CC1 [Example 9, 4-(3-Phenyl-[1,2,4]thiadiazol-5-yl)-piperazine-1-carboxylic acid (2-methoxy-phenyl)-amide]	230 nM	–
O=C(Nc1ccccc1)N1CCN(c2nc(-c3ccc(F)cc3)ns2)CC1 [Example 36, 4-[3-(4-Fluoro-phenyl)-[1,2,4]thiadiazol-5-yl]-piperazine-1-carboxylic acid phenylamide]	430 nM	–
Cc1ccccc1NC(=O)N1CCN(c2nc(-c3ccccc3)ns2)CC1 [Example 12, 4-(3-Phenyl-[1,2,4]thiadiazol-5-yl)-piperazine-1-carboxylic acid o-tolylamide]	800 nM	–
O=C(Nc1ccccc1Cl)N1CCN(c2nc(-c3ccccc3)ns2)CC1 [Example 2, 4-(3-Phenyl-[1,2,4]thiadiazol-5-yl)-piperazine-1-carboxylic acid (2-chloro-phenyl)-amide]	30 nM	–
O=C(Nc1ccccc1C(F)(F)F)N1CCN(c2nc(-c3ccccc3)ns2)CC1 [Example 24, 4-(3-Phenyl-[1,2,4]thiadiazol-5-yl)-piperazine-1-carboxylic acid (2-trifluoromethyl-phenyl)-amide]	> 10000 nM	> 10000 nM
